Data set [1] can be described thus: Plasma levels in patients of phase I clinical study. Format: in vivo. The note with it: human, po. An excerpt:
Seven patients with solid tumor metastasis are undergoing treatment via oral administration of compound 1 under the FDA approved phase I clinical study. Table J provides data on the patients' response to this treatment. PT# is patient number. Response is the sum of the products of bidirectional measurements. No measurement means that while the disease was evaluable, it was not measureable. The concentration of the drug in the blood of the patients is well within the range which inhibits signal transduction in vitro and which inhibits tumor growth in vitro and in animals.
The concentration of compound 1 in the blood of patient #1 was from 1-2 μg/mL, while that of the other three patients was >3 μg/mL (>7 μM). These concentrations are well within the range which inhibit signal transduction in vitro and which inhibit tumor growth in animals.

In data set [2] the test system is cell adhesion to fibronectin. As to the kind of experiment: Cell adhesion to fibronectin. Format: cell-based. The note with it: data not shown. The method, then: Cells were preincubated with compound 1 (0.03-10 μg/mL) for periods of 2 to 48 hr prior to the adhesion assay. In addition, compound 1 remained present during the assay. […] Maximal inhibition of adhesion was observed following overnight exposure of the cells to compound 1.

For data set [3], the system named is OVCAR3 cells. As to the kind of experiment: Colony formation (soft agar). The data set is classed as cell-based. The note with it: Homo sapiens, OVCAR-3. On the procedure: Colony formation: Compound 1 was evaluated at three concentrations for inhibition of colony formation in both the A2058 and OVCAR3 cell lines. Colony number was determined in triplicate and compared to the vehicle control run on each 24 well plate to provide a percent. Colonies greater than 60 cells were counted at 100× under phase contrast. […] In a second study, selected compounds were evaluated for their effect on density-independent growth of the A2058 cell line in soft agar. Percent inhibition was determined over triplicate experiments involving three log molar concentrations of the test compound.

The test system of data set [4] is signal transduction pathways (calcium influx, release of arachidonic acid, generation of inositol phosphates). The conditions noted are these: cited from earlier work.
Data set [5] deals with 5R cells. The data set is described as follows: [3H]thymidine incorporation. Format: cell-based, rat. The conditions noted are these: 0-10 μg/mL, 24 hr. On the procedure:
(§1) Proliferation: Two independent methods were used to determine the effect of various compounds on cellular proliferation. The first method utilized [^3 H]thymidine labelling and was performed using A2058, 5R, OVCAR3, and MDA-231 cells. Because the potential effect of compound 1 on thymidine metabolism was unknown, a clonogenic assay was also used. This assay utilized crystal violet nuclear staining.
For the thymidine incorporation assay, an initial aliquot of 15,000 cells was plated in 96 well plates. The cells were grown to subconfluence, serum-starved, then fed with serum-containing media to which incremental doses of compound 1 (0-10 μg/mL) were added. After 24 hr, the cells were pulsed with [^3 H]thymidine (0.5 μCi/well) for 2 hr. Trichloroacetic acid was added to precipitate […] [^3 H]thymidine. After removal, ice cold ethanol/diethyl ether was added to precipitate cellular nucleic acids. The residue was solubilized with 0.2M NaOH and [^3 H]thymidine incorporation was determined by liquid scintillation counting. Inhibition of thymidine uptake was calculated as a percent of untreated control cell incorporation of labelled thymidine. As FIG. 4 indicates, de novo DNA synthesis was inhibited in all of the tumor cell lines. Maximal inhibition (80%) was found with the 5R cells.

Data set [6] is described as follows: Cell viability by trypan blue exclusion. The data set is classed as cell-based. The conditions noted are these: a2058 and 5r cells; average. The method, then:
Compound 1 was preincubated with the cells for various periods of time, added at the start of the assay, or added later. Additionally, compound 1 remained present during the motility assay. The cells were assayed for their motile response to AMF. AMF stimulates random and directed locomotion of 5R ras-transfected rat embryo fibroblasts and A2058 human melanoma cells. […] Cell viability determined by trypan blue exclusion averaged greater than 96%. Cells exposed to various concentrations of compound 1 were tested for their response to AMF vs. control. Percent stimulated motility (in densitometer units) is defined as: […]

The subject of data set [7] is T24 (EJ) bladder. As to the kind of experiment: Growth of tumor cell lines. The conditions noted are these: T-24 human bladder cancer with activated H-ras. Format: cell-based. On the procedure:
In one study, the cells were continuously exposed to 20 μM compound 1, and growth inhibition was measured. In a second study, cell lines which only grow in suspension were plated in 24 well plates (50,000 cells/well) and were incubated with increasing concentrations of compound 1. After 72 hr in culture, the cells were harvested, centrifuged,resuspended in a small volume. The number of remaining cells and their viability was determined using a hemocytometer.

The test system of data set [8] is A2058 cells. The data set is described as follows: Type IV collagen-stimulated motility. Format: cell-based, human. The conditions noted are these: data not shown.
For data set [9] the following is noted: oral, nude mice; cited from earlier work.
For data set [10], the system named is HT-29 human colon cancer cells. As to the kind of experiment: Experimental pulmonary metastasis, tumor cells pretreated in vitro. The note with it: cells treated 10 μg/mL, 24 hr; day 28. The data set is classed as in vivo, nude mice. On the procedure: Compound 1 was also tested for efficacy against HT-29 human colon cancer cells. HT-29 tumor cells were incubated with compound 1, 10 μg/mL, or DMSO vehicle (0.05%) for 24 hr. After harvesting and washing, one million cells were injected into the lateral tail vein of nude mice. Animals were humanely sacrificed on day 28, the lungs were inflated and fixed, and the number of pulmonary metastases were then counted. Observations on the size of the metastases were also made.

Data set [11] deals with OVCAR3 cells. The data set is described as follows: Clonogenic (crystal violet) proliferation assay. Format: cell-based, human. The conditions noted are these: 0-10 μg/mL, 96 hr. The method, then:
as §1
(§2) For the clonogenic assay, aliquots of 50,000 cells per well (24 well plates) were grown under standard tissue culture conditions in the presence of increasing doses or test compound (0-10 μg/mL) or vehicle control. After 96 hr, the cells were gently washed with PBS, fixed, and stained with 0.5% crystal violet nuclear stain in 20% methanol. Excess stain was removed with tap water and bound stain was eluted with an equal volume solution of 01N sodium citrate (pH 4.2) and absolute ethanol. Optical density (O.D.) of eluted crystal violet stain was determined at 540 nm. The results of dose-dependent inhibition of tumor cell proliferation by compound 1 are shown in FIG. 5, in which the data are expressed as percent of untreated control cell proliferation for each cell type. The degree of inhibition varied with the cell type and was maximal (76%) for the A2058 cell line.

Data set [12] concerns MDA-231 cells. The data set is described as follows: Clonogenic (crystal violet) proliferation assay. The data set is classed as cell-based, human. The conditions noted are these: 0-10 μg/mL, 96 hr. On the procedure: as §1, §2
The subject of data set [13] is A2058 cells. The data set is described as follows: Clonogenic (crystal violet) proliferation assay. The data set is classed as cell-based, human. The note with it: 0-10 μg/mL, 96 hr. The method, then:
as §1, §2

Molecules are shown by their SMILES. Values joined by “and” are separate entries in the source; they are usually repeats but may differ in a detail not shown here. Equal entries are not always repeated. Where two headings read alike, the source gives them in different places.

As to `NC(=O)c1nnn(Cc2cc(Cl)c(C(=O)c3ccc(Cl)cc3)c(Cl)c2)c1N` [Compound 1], the Cmax was 1250 ng/mL in [1] (100 mg/m^2, patient 1, melanoma, 100 mg/m^2 qod, oral, read-out: PEAK LEVEL); 3610 ng/mL in data set [1] (100 mg/m^2, patient 2, colon, 100 mg/m^2 qd, oral, read-out: PEAK LEVEL); 3530 ng/mL in data set [1] (100 mg/m^2, patient 3, colon, 100 mg/m^2 qd, oral, read-out: PEAK LEVEL); 3080 ng/mL in data set [1] (100 mg/m^2, patient 4, ovary, 100 mg/m^2 qd, oral, read-out: PEAK LEVEL); 1770 ng/mL in data set [1] (200 mg/m^2, patient 5, lung, 200 mg/m^2 qod, oral, read-out: PEAK LEVEL); 1340 ng/mL in data set [1] (200 mg/m^2, patient 6, carcinoid, 200 mg/m^2 qod, oral, read-out: PEAK LEVEL). In addition, the Cmax in [1] (200 mg/m^2, patient 7, colon, 200 mg/m^2 qod, oral, read-out: PEAK LEVEL) is 2830 ng/mL; in data set [1] (other three patients of FIG. 19, read-out: concentration in the blood (peak/steady state)) it was > 3000 ng/mL and > 7 µM; in data set [1] (patient #1, read-out: concentration in the blood (peak/steady state)) it was 1000 to 2000 ng/mL. Further, the “cell adhesion to fibronectin” value in data set [2] is on record as “decreased cell adhesion”. The inhibition at 2 µM in data set [3] was greater than 70%. Further, the “inhibition of selected signal transduction pathways” value in [4] is reported as “novel inhibitor of selected signal transduction pathways”. For the same compound, the “maximal inhibition of de novo DNA synthesis ([3H]thymidine incorporation)” value in data set [5] is on record as 80%. This compound returned a viability in [6] greater than 96%. Besides, in [7], the inhibition of proliferation entry is given as “inhibited proliferation”. For the same compound, in data set [8], the “motility due to type IV collagen stimulation” value was “inhibited motility”. The “toxicity to normal tissues including connective tissue, mucosal surfaces, and bone marrow” value in data set [9] is “no toxicity to normal tissues”. In addition, the “inhibition of pulmonary colonization” value in data set [10] came to 96%. Also, the “size of pulmonary metastases” value in data set [10] is listed as “marked reduction in size”. The “inhibition of tumor cell proliferation” value in data set [11] and in data set [12] was “dose dependent inhibition of tumor cell proliferation” each time. For the same compound, the “maximal inhibition of tumor cell proliferation” value in [13] is on record as 76%.

The values above are taken from US5482954A, “Signal transduction inhibitor triazole and diazole compounds” (priority 1994, dated 1996).
